Measurements: ChEMBL document CHEMBL1201862, “PubChem BioAssay data set” (2004)
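Protocol summary: plate cells (96-well), add compound at 5 concentrations, incubate 48 h, interpolate endpoints linearly. At the GI50, growth is halved.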 Activity calls are given as the source filed them. No stated cut-off is given here; in the data, active = GI50 up to about 1.1 µM and inactive = higher.

How the values were obtained:
Experiment in all cases: NCI-60 cell line screen, 48 h
[1] = system: 786-0
[2] = system: A498
[3] = system: A549
[4] = system: ACHN
[5] = system: BT-549
[6] = system: CAKI-1
[7] = system: CCRF-CEM
[8] = system: COLO 205
[9] = system: DU-145
[10] = system: EKVX
[11] = system: HCC 2998
[12] = system: HCT-116
[13] = system: HCT-15
[14] = system: HL-60
[15] = system: HOP-62
[16] = system: HOP-92
[17] = system: HT-29
[18] = system: Hs-578T
[19] = system: IGROV-1
[20] = system: K562
[21] = system: KM12
[22] = system: LOX IMVI
[23] = system: M14
[24] = system: MCF7
[25] = system: MDA-MB-231
[26] = system: MDA-MB-435
[27] = system: MDA-N
[28] = system: MOLT-4
[29] = system: Malme-3M
[30] = system: NCI-H226
[31] = system: NCI-H23
[32] = system: NCI-H460
[33] = system: NCI-H522
[34] = system: NCI/ADR-RES
[35] = system: OVCAR-3
[36] = system: OVCAR-4
[37] = system: OVCAR-5
[38] = system: OVCAR-8
[39] = system: PC-3
[40] = system: RPMI-8226
[41] = system: RXF 393
[42] = system: SF-268
[43] = system: SF-295
[44] = system: SF-539
[45] = system: SK-MEL-28
[46] = system: SK-MEL-2
[47] = system: SK-MEL-5
[48] = system: SK-OV-3
[49] = system: SN12C
[50] = system: SNB-19
[51] = system: SNB-75
[52] = system: SR
[53] = system: SW-620
[54] = system: T47D
[55] = system: TK-10
[56] = system: U-251
[57] = system: UACC-257
[58] = system: UACC-62
[59] = system: UO-31
[60] = system: DLD-1
[61] = system: DMS-273
[62] = system: KM-20L2
[63] = system: LXFL 529
[64] = system: M19-MEL

With `COc1ccc(N2C(=O)CC(=O)N(NC(=O)C(C)Oc3ccccc3C)C2=S)cc1` (stereo not drawn) the GI50 [1] was > 100 µM (inactive), the GI50 [2] was > 100 µM (inactive) and the GI50 [3] was > 100 µM (inactive). For the same molecule, the GI50 [4] was > 100 µM (inactive), the GI50 [5] was > 100 µM (inactive) and the GI50 [6] was > 100 µM (inactive). For the same molecule, the GI50 [7] was > 100 µM (inactive), the GI50 [8] was > 100 µM (inactive) and the GI50 [9] was > 100 µM (inactive). For the same molecule, the GI50 [10] was > 100 µM (inactive), the GI50 [11] was > 100 µM (inactive) and the GI50 [12] was > 100 µM (inactive). For the same molecule, the GI50 [13] was over 100 µM, the GI50 [14] was > 100 µM (inactive) and the GI50 [15] was > 100 µM (inactive). For the same molecule, the GI50 [16] was > 100 µM (inactive), the GI50 [17] was > 100 µM (inactive) and the GI50 [18] was > 100 µM (inactive). The GI50 [19] was > 100 µM (inactive), the GI50 [20] was > 100 µM (inactive) and the GI50 [21] was > 100 µM (inactive). The GI50 [22] was > 100 µM (inactive), the GI50 [23] was > 100 µM (inactive) and the GI50 [24] was > 100 µM (inactive). For the same molecule, the GI50 [25] was > 100 µM (inactive), the GI50 [26] was > 100 µM (inactive) and the GI50 [27] was > 100 µM (inactive). The GI50 [28] was > 100 µM (inactive), the GI50 [29] was > 100 µM (inactive) and the GI50 [30] was > 100 µM (inactive). For the same molecule, the GI50 [31] was > 100 µM (inactive), the GI50 [32] was > 100 µM (inactive) and the GI50 [33] was > 100 µM (inactive). The GI50 [34] was > 100 µM (inactive), the GI50 [35] was > 100 µM (inactive) and the GI50 [36] was > 100 µM (inactive). For the same molecule, the GI50 [37] was > 100 µM (inactive), the GI50 [38] was > 100 µM (inactive) and the GI50 [39] was > 100 µM (inactive). The GI50 [40] was > 100 µM (inactive), the GI50 [41] was > 100 µM (inactive) and the GI50 [42] was > 100 µM (inactive). The GI50 [43] was > 100 µM (inactive), the GI50 [44] was > 100 µM (inactive) and the GI50 [45] was > 100 µM (inactive). For the same molecule, the GI50 [46] was > 100 µM (inactive), the GI50 [47] was > 100 µM (inactive) and the GI50 [48] was > 100 µM (inactive). The GI50 [49] was > 100 µM (inactive), the GI50 [50] was > 100 µM (inactive) and the GI50 [51] was > 100 µM (inactive). The GI50 [52] was > 100 µM (inactive), the GI50 [53] was > 100 µM (inactive) and the GI50 [54] was > 100 µM (inactive). For the same molecule, the GI50 [55] was > 100 µM (inactive), the GI50 [56] was > 100 µM (inactive) and the GI50 [57] was > 100 µM (inactive). For the same molecule, the GI50 [58] was > 100 µM (inactive) and the GI50 [59] was > 100 µM (inactive).

With `O=C1c2ccccc2C(=O)N1[C@@H](Cc1ccccc1)C(=O)n1cccc1CO` the GI50 [1] was > 100 µM (inactive), the GI50 [2] was > 100 µM (inactive) and the GI50 [3] was > 100 µM (inactive). For the same molecule, the GI50 [4] was > 100 µM (inactive), the GI50 [5] was > 100 µM (inactive) and the GI50 [6] was > 100 µM (inactive). The GI50 [7] was > 100 µM (inactive), the GI50 [8] was > 100 µM (inactive) and the GI50 [9] was > 100 µM (inactive). For the same molecule, the GI50 [10] was > 100 µM (inactive), the GI50 [11] was > 100 µM (inactive) and the GI50 [12] was > 100 µM (inactive). The GI50 [13] was over 100 µM, the GI50 [14] was > 100 µM (inactive) and the GI50 [15] was > 100 µM (inactive). The GI50 [16] was > 100 µM (inactive), the GI50 [17] was > 100 µM (inactive) and the GI50 [18] was > 100 µM (inactive). The GI50 [19] was > 100 µM (inactive), the GI50 [20] was > 100 µM (inactive) and the GI50 [21] was > 100 µM (inactive). The GI50 [22] was > 100 µM (inactive), the GI50 [23] was > 100 µM (inactive) and the GI50 [24] was > 100 µM (inactive). For the same molecule, the GI50 [25] was > 100 µM (inactive), the GI50 [26] was > 100 µM (inactive) and the GI50 [27] was > 100 µM (inactive). For the same molecule, the GI50 [28] was > 100 µM (inactive), the GI50 [29] was > 100 µM (inactive) and the GI50 [30] was > 100 µM (inactive). For the same molecule, the GI50 [31] was > 100 µM (inactive), the GI50 [32] was > 100 µM (inactive) and the GI50 [33] was > 100 µM (inactive). The GI50 [34] was > 100 µM (inactive), the GI50 [35] was > 100 µM (inactive) and the GI50 [36] was > 100 µM (inactive). The GI50 [37] was > 100 µM (inactive), the GI50 [38] was > 100 µM (inactive) and the GI50 [39] was > 100 µM (inactive). The GI50 [40] was 93.8 µM (inactive), the GI50 [41] was 1.02 µM (active) and the GI50 [42] was > 100 µM (inactive). The GI50 [43] was > 100 µM (inactive), the GI50 [44] was > 100 µM (inactive) and the GI50 [45] was > 100 µM (inactive). For the same molecule, the GI50 [46] was > 100 µM (inactive), the GI50 [47] was > 100 µM (inactive) and the GI50 [48] was > 100 µM (inactive). For the same molecule, the GI50 [49] was > 100 µM (inactive), the GI50 [50] was > 100 µM (inactive) and the GI50 [51] was > 100 µM (inactive). For the same molecule, the GI50 [52] was > 100 µM (inactive), the GI50 [53] was > 100 µM (inactive) and the GI50 [54] was > 100 µM (inactive). For the same molecule, the GI50 [55] was > 100 µM (inactive), the GI50 [56] was > 100 µM (inactive) and the GI50 [57] was > 100 µM (inactive). The GI50 [58] was > 100 µM (inactive) and the GI50 [59] was > 100 µM (inactive).

`Cc1ccc(C(N)=O)cc1/N=N/N(C)C` was tested, and the GI50 [1] was > 100 µM (inactive), the GI50 [3] was > 100 µM (inactive) and the GI50 [4] was > 100 µM (inactive). For the same molecule, the GI50 [6] was > 100 µM (inactive), the GI50 [8] was > 100 µM (inactive) and the GI50 [60] was > 100 µM (inactive). The GI50 [61] was > 100 µM (inactive), the GI50 [10] was > 100 µM (inactive) and the GI50 [11] was > 100 µM (inactive). For the same molecule, the GI50 [13] was over 100 µM, the GI50 [15] was > 100 µM (inactive) and the GI50 [16] was > 100 µM (inactive). The GI50 [17] was > 100 µM (inactive), the GI50 [19] was > 100 µM (inactive) and the GI50 [62] was > 100 µM (inactive). For the same molecule, the GI50 [21] was > 100 µM (inactive), the GI50 [22] was > 100 µM (inactive) and the GI50 [63] was > 100 µM (inactive). For the same molecule, the GI50 [23] was > 100 µM (inactive), the GI50 [64] was > 100 µM (inactive) and the GI50 [31] was > 100 µM (inactive). The GI50 [32] was > 100 µM (inactive), the GI50 [33] was > 100 µM (inactive) and the GI50 [35] was > 100 µM (inactive). The GI50 [36] was > 100 µM (inactive), the GI50 [38] was > 100 µM (inactive) and the GI50 [42] was > 100 µM (inactive). The GI50 [43] was > 100 µM (inactive), the GI50 [45] was > 100 µM (inactive) and the GI50 [46] was > 100 µM (inactive). The GI50 [47] was > 100 µM (inactive), the GI50 [48] was > 100 µM (inactive) and the GI50 [49] was > 100 µM (inactive). The GI50 [50] was > 100 µM (inactive), the GI50 [53] was > 100 µM (inactive) and the GI50 [55] was > 100 µM (inactive). The GI50 [56] was > 100 µM (inactive), the GI50 [57] was > 100 µM (inactive) and the GI50 [58] was > 100 µM (inactive). For the same molecule, the GI50 [59] was > 100 µM (inactive).
